Laboratory results as given in patent publication US20120088664A1, “Antifungal 1,2,4-triazolyl derivatives having a 5-sulfur subtituent” (BASF SE, priority 2009, published 2012).

How the values were obtained:
Phytophthora infestans = type: in vivo; settings: 300 ppm active compound, tomato plants sprayed to run-off, inoculated next day, assessed after 6 days; untreated plants 90% infected
Botrytis cinerea = test: Preventative control of grey mold (Botrytis cinerea) on leaves of green pepper (greenhouse test); type: in vivo; settings: 300 ppm active compound, green pepper seedlings sprayed to run-off, inoculated next day, assessed after 5 days; untreated plants 90% infected

Row | Compound | infection (fungal attack on the leaves visually assessed as % diseased leaf area) (Phytophthora infestans) | melting point | infection (fungal attack on the leaves visually assessed as % diseased leaf area) (Botrytis cinerea)
1 | CC(C)(C)C(O)(CCc1ccc(Cl)cc1Cl)Cn1nc[nH]c1=S (stereo not shown) [Example 1, 1-(2-(2,4-dichlorophenethyl)-2-hydroxy-3,3-dimethylbutyl)-1H-1,2,4-triazole-5(4H)-thione] | 15% |  | 
2 | CC(C)(C)C(O)(CCc1ccc(F)cc1F)Cn1nc[nH]c1=S (stereo not shown) [Example 2, 1-(2-(2,4-Difluorophenethyl)-2-hydroxy-3,3-dimethylbutyl)-1H-1,2,4-triazole-5(4H)-thione] |  | 130 to 132 °C | 
3 | CC(C)(C)C(O)(CCc1ccc(Cl)c(Cl)c1)Cn1nc[nH]c1=S (stereo not shown) [Example 3, 1-(2-(3,4-Dichlorophenethyl)-2-hydroxy-3,3-dimethylbutyl)-1H-1,2,4-triazole-5(4H)-thione] |  | 155 to 157 °C | 
4 | CC(C)(C)C(O)(CCc1ccc(F)cc1)Cn1nc[nH]c1=S (stereo not shown) [Example 4, 1-(2-(4-Fluorophenethyl)-2-hydroxy-3,3-dimethylbutyl)-1H-1,2,4-triazole-5(4H)-thione] |  | 134 to 135 °C | 7%
5 | Cc1ccc(CCC(O)(Cn2nc[nH]c2=S)C(C)(C)C)cc1 (stereo not shown) [Example 5, 1-(2-hydroxy-3,3-dimethyl-2-(4-methylphenethyl)butyl)-1H-1,2,4-triazole-5(4H)-thione] |  | 137 to 138 °C | 
6 | CC(C)(C)C(O)(CCc1ccc(C(F)(F)F)cc1)Cn1nc[nH]c1=S (stereo not shown) [Example 6, 1-(2-Hydroxy-3,3-dimethyl-2-(4-(trifluoromethyl)phenethyl)butyl)-1H-1,2,4-triazole-5(4H)-thione] |  | 139 to 140 °C | 
